In publication PMC5867622, “Microginins from a Microcystis sp. Bloom Material Collected from the Kishon Reservoir, Israel” (Marine Drugs, 2018):
Read-outs that look alike come from different tables or passages of the source. Square brackets hold non-standard residues; d marks the D form. Peptide text beside a SMILES is read from it. * marks the point of attachment. X13 = CN[C@H](CCCCCCC(Cl)Cl)[C@@H](O)C(=O)*; X7 = N[C@H](CCCCCCCCl)[C@@H](O)C(=O)*; NMeY = CN[C@@H](Cc1ccc(O)cc1)C(=O)O; X17 = CCCCC[C@H](N)[C@H](O)C(=O)*; NMeI = CC[CH](C)[CH](NC)C(=O)O; NMeL = CN[CH](CC(C)C)C(=O)O; X11 = CCCCCCCC(NC)C(O)C(=O)*; X5 = NC(CCCCCCCCl)C(O)C(=O)*; X16 = CCCCCC(NC)C(O)C(=O)*; X8 = CCCCCCCC(N)C(O)C(=O)*

How the values were obtained:
APN = conditions: Table S1, cited from earlier work
[1] = molecular target: T1, porcine kidney microsomal aminopeptidase M (Sus scrofa, UniProt P15145); experiment: Aminopeptidase M inhibitory assay; format: biochemical
T1 construct: purchased Sigma-Aldrich (St. Louis, MO, USA); host or cells: porcine kidney microsomes
T1 sequence (P15145 1-963): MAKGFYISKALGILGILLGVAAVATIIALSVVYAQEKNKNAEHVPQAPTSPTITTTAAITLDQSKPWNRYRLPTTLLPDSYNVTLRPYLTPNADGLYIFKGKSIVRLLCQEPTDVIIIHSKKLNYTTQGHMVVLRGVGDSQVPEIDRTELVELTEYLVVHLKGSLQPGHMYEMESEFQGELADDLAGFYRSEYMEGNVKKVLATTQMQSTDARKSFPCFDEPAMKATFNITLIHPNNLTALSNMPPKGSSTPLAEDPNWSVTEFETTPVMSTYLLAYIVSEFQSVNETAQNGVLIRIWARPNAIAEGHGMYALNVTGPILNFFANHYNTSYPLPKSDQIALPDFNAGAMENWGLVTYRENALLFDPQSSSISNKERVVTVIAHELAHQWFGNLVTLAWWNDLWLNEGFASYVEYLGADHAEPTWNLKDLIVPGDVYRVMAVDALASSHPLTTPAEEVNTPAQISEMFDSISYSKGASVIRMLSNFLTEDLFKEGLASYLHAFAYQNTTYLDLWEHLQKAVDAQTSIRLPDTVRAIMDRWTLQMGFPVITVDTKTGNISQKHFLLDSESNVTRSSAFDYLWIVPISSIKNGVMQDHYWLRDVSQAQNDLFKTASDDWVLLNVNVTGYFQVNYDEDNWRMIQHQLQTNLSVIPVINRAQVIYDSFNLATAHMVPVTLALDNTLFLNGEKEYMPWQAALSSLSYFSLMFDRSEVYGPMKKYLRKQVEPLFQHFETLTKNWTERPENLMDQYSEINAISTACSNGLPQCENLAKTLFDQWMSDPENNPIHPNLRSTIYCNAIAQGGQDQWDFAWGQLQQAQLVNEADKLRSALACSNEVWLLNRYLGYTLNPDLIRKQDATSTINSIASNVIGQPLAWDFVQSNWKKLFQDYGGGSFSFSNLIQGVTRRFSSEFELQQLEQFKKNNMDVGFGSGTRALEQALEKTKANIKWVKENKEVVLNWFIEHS
Description: Aminopeptidase M inhibitory activity was determined according to the procedure described by Ishida et al.. A reaction mixture composed of 20 μL of L-leucine-p-nitroanilide (2 mM in 0.1 M Tris-HCl buffer at pH 7.0), 50 μL of 0.1 M Tris-HCl buffer (pH 7.0) and 20 μL of test solution was added to each well of a 96-well microtiter plate. The plate was incubated at 37 °C for 5 min; thereafter, 10 μL of porcine kidney microsomal aminopeptidase M [EC Number 232-942-5, Sigma-Aldrich (St. Louis, MO, USA), […] in 3.5 M (NH4)2SO4] was added to each well, and the absorbance at 405 nm was measured for 30 min. The microginin samples were dissolved in DMSO at a concentration of 1 mg/mL, and the IC50 values were determined by analysis of a series of dilutions (from 45.5 μM to 0.00069 μM). A sigmoidal curve of the enzyme inhibition versus the concentration of the inhibitor was observed that was fit to a 4-parameter logistic model.

ACE = conditions: Table S1; ref 3 (Neumann et al., FEMS Microbiol. Lett. 1997); cited from earlier work
cAPM = system: cAPM; set-up: method as in earlier work; conditions: Table S1; ref 3 (Neumann et al., FEMS Microbiol. Lett. 1997); cited from earlier work
mAPM = system: mAPM; set-up: method as in earlier work; conditions: Table S1; ref 3 (Neumann et al., FEMS Microbiol. Lett. 1997); cited from earlier work
[2] = Table 4, substrate L-leucine-p-nitroanilide, Tris-HCl pH 7.0, 37 °C, read-out: IC50 in μM ± SD
[3] = Table S1, source 14 = this manuscript, heading: Activity: APM, read-out: Activity: APM
[4] = read-out: Activity: APM, Table S1, source 14 = this manuscript
[5] = read-out: IC50 in μM ± SD, Table 4, substrate L-leucine-p-nitroanilide, Tris-HCl pH 7.0, 37 °C

Q: Which IC50 (APN; ref 8 (Ploutno, Carmeli, Tetrahedron 2002)) does the source give for `CCCCC[C@H](N)[C@H](O)C(=O)N[C@H](C(=O)N(C)[C@H](C(=O)N(C)[C@@H](Cc1ccc(O)cc1)C(=O)N[C@@H](Cc1ccc(O)cc1)C(=O)O)[C@@H](C)CC)C(C)C` [Nostoginin BN741] (X17-V[NMeI][NMeY]Y-OH) here?
A: 1300 nM

Q: What does the source list for `CN[C@H](CCCCCCCCl)[C@@H](O)C(=O)N[C@@H](Cc1ccc(O)cc1)C(=O)N(C)[C@@H](CC(C)C)C(=O)N1CCC[C@H]1C(=O)O` [Microginin KR638]?
A: IC50 [1, 2]: 3.8 ± 0.3 µM; IC50 [1, 3]: 3.8 µM

Q: Which IC50 ([1]; Activity: APM, Table S1, source 14 = this manuscript) does the source give for `CCCCCCCC(N)C(O)C(=O)NC(C(=O)N1CCCC1C(=O)NC(Cc1ccc(O)cc1)C(=O)NC(Cc1ccc(O)cc1)C(=O)O)C(C)O` (stereo not shown) [Microginin FR3] (X8-TPYY-OH; configuration not given here) here?
A: 0.0062 µM

Q: What about the IC50 ([1]; IC50 in μM ± SD, Table 4, substrate L-leucine-p-nitroanilide, Tris-HCl pH 7.0, 37 °C) of the same molecule?
A: 6.2 ± 0.03 µM

Q: With `CN[C@H](CCCCCCC(Cl)Cl)[C@@H](O)C(=O)N[C@@H](Cc1ccc(O)cc1)C(=O)N(C)[C@@H](CC(C)C)C(=O)N1CCC[C@H]1C(=O)N[C@@H](Cc1ccc(O)cc1)C(=O)O` [Microginin KR835] (X13-Y[NMeL]PY-OH) as the molecule, how does the IC50 [1, 4] read?
A: 0.0004 µM

Q: What about the IC50 [1, 5] of the same molecule?
A: 0.4 ± 0.2 µM

Q: For `CCCCCC(NC)C(O)C(=O)N[C@H](C(=O)N(C)[C@H](C(=O)N(C)[C@@H](Cc1ccc(O)cc1)C(=O)N[C@@H](Cc1ccc(O)cc1)C(=O)O)[C@@H](C)CC)C(C)C` (stereo partly shown) [Microginin SD755] (X16-V[NMeI][NMeY]Y-OH), which IC50 (APN; ref 7 (Resef, Carmeli, Tetrahedron 2001)) is on record?
A: 18500 nM

Q: With Microginin FR1 as the molecule, how does the IC50 (ACE) read?
A: 16000 nM

Q: What about the IC50 (cAPM) of the same molecule?
A: 1300 nM

Q: And the IC50 (mAPM)?
A: 6 nM

Q: Which “Activity: APN (ni)” value (APN; ref 10 (Gesner-Apter, Carmeli, Tetrahedron 2008)) does the source give for `CC(C)[C@@H](C(=O)N[C@@H](Cc1ccc(O)cc1)C(=O)O)N(C)C(=O)[C@H](C)NC(=O)[C@@H](O)[C@@H](N)CCCCCCCCl` [Microginin AL584] here?
A: ni

Q: With `CCCCCCC[C@@H](NC)[C@@H](O)C(=O)N[C@@H](Cc1ccc(O)cc1)C(=O)N(C)[C@@H](CC(C)C)C(=O)N1CCC[C@H]1C(=O)O` [Microginin KR604] as the molecule, how does the IC50 [1, 2] read?
A: 7.5 ± 0.1 µM

Q: And the IC50 [1, 3]?
A: 7.5 µM

Q: For `CCC(C)C(C(=O)N1CCCC1C(=O)NC(Cc1ccc(O)cc1)C(=O)O)N(C)C(=O)C(Cc1ccc(O)cc1)NC(=O)C(O)C(N)CCCCCCCCl` (stereo not shown) [Microginin HG787] (X5-Y[NMeI]PY-OH; configuration not given here), which IC50 (APN; ref 11 (Lifshits et al., Tetrahedron 2011)) is on record?
A: 7700 nM

Q: With `CCCCCCCC(NC)C(O)C(=O)NC(Cc1ccc(O)cc1)C(=O)N(C)C(CC(C)C)C(=O)N1CCCC1C(=O)NC(Cc1ccc(O)cc1)C(=O)O` (stereo not shown) [Microginin KR767] (X11-Y[NMeL]PY-OH; configuration not given here) as the molecule, how does the IC50 [1, 4] read?
A: 0.0005 µM

Q: And the IC50 [1, 5]?
A: 0.5 ± 0.2 µM

Q: For `CC(C)C[C@@H](C(=O)N1CCC[C@H]1C(=O)N[C@@H](Cc1ccc(O)cc1)C(=O)O)N(C)C(=O)[C@H](Cc1ccc(O)cc1)NC(=O)[C@H](O)[C@H](N)CCCCCCCCl` [Microginin KR787] (X7-Y[NMeL]PY-OH), which IC50 [1, 4] is on record?
A: 0.0057 µM

Q: And the IC50 [1, 5]?
A: 5.7 ± 0.1 µM
